We go through 17 compounds from ChEMBL document CHEMBL3580644, “Synthesis of piperlongumine analogues and discovery of nuclear factor erythroid 2-related factor 2 (Nrf2) activators as potential neuroprotective agents” (J Med Chem, 2015).

SMILES strings stand for the structures. Calls of active or inactive are those of the source. The rule behind the calls is not given here.

Series [1] in a line: Antioxidant activity assessed as DPPH radical scavenging activity at 20 uM incubated for 30 mins by spectrophotometry. To be noted: 0.5 h. Format: physicochemical.
Series [2] can be described thus: Antioxidant activity assessed as ABTS radical scavenging activity at 20 uM incubated for 30 mins by spectrophotometry. The settings on record: 0.5 h. Format: physicochemical.
The nature of series [3]: Cytotoxicity against rat PC12 cells assessed as reduction in cell viability at 20 uM incubated for 24 hrs by MTT assay. The settings on record: pc-12, 24 h. The class given is cell-based.
The nature of series [4]: Cytotoxicity against human L02 cells assessed as reduction in cell viability at 20 uM to 100 uM incubated for 24 hrs by MTT assay. Format: cell-based. The settings on record: l02, 24 h. (In general: Tetrazolium dyes change colour on reduction, which living cells bring about.)
The subject of series [5] is PC-12. Nature of the series: Cytoprotection activity against H2O2-induced cytotoxicity in rat PC12 cells assessed as cell viability at 20 uM pre-incubated for 24 hrs before H2O2 exposure for 12 hrs by MTT assay. The class given is functional, cell-based.
The nature of series [6]: Cytotoxicity against rat PC12 cells assessed as reduction in cell viability at 20 uM to 100 uM incubated for 24 hrs by MTT assay. The settings on record: pc-12, 24 h. The class given is cell-based.
In series [7] the test system is PC-12. The series is described as follows: Cytoprotection activity against 6-OHDA-induced cytotoxicity in rat PC12 cells assessed as cell viability at 20 uM pre-incubated for 24 hrs before 6-OHDA exposure for 12 hrs by MTT assay. Format: functional, cell-based.
Series [8] in a line: Cytotoxicity against rat PC12 cells assessed as reduction in cell viability at 100 uM incubated for 24 hrs by MTT assay. Format: cell-based. To be noted: pc-12, 24 h.
Series [9] is described as follows: Cytotoxicity against human L02 cells assessed as reduction in cell viability at 100 uM incubated for 24 hrs by MTT assay. The class given is cell-based. The settings on record: l02, 24 h.

For the compound `O=C(/C=C/c1ccc(O)cc1)N1CCCC1=O`, the Activity result is “Active” in series [1]; “Active” in series [2]; “Non-toxic” in series [3]; “Non-toxic” in [4]; “Non-toxic” in series [6]. Also, the result in the series with PC-12 [5] and in the series with PC-12 [7] was Active.
Consider `O=C(/C=C/c1ccc(Br)cc1)N1CCCCC1=O`, for which the figures for the Activity result in series [8], in [3] and in [9] were “Toxic”, “Non-toxic” and “Toxic”, respectively. In addition, the result in the series with PC-12 [5] and in the series on PC-12 [7] was Active.
Regarding `O=C(/C=C/c1ccc(C(F)(F)F)cc1)N1CCCCCC1=O`, the figures for the Activity entry in [8], in series [3] and in series [9] were “Toxic”, “Non-toxic” and “Toxic”, respectively. Besides, the outcome with PC-12 [5] and in the series on PC-12 [7] was Active.
Regarding `COc1cc(CCC(=O)N2CCCCC2=O)cc(OC)c1OC` [TETRAHYDROPIPLARTINE], the Activity entry in series [3], in series [4] and in [6] was “Non-toxic” throughout. For the same compound, the result with PC-12 [5] and in the series with PC-12 [7] was inactive.
Regarding `O=C(/C=C/c1ccc([N+](=O)[O-])cc1)N1CCCCCC1=O`, the Activity entry in series [8] is “Toxic”; in series [3], “Non-toxic”; in series [9], “Toxic”. For the same compound, the outcome with PC-12 [5] and with PC-12 [7] was Active.
As to `O=C(/C=C/c1ccc([N+](=O)[O-])cc1)N1CCCCC1=O`, the Activity result in series [8] was “Toxic”; in [3], “Non-toxic”; in series [9], “Toxic”. In addition, the result in the series on PC-12 [5] and in the series on PC-12 [7] was Active.
For `O=C(/C=C/c1ccc(Br)cc1)N1CCCC1=O`, the figures for the Activity result in [8], in series [3] and in [9] were “Toxic”, “Non-toxic” and “Toxic”, respectively. Also, the outcome in the series with PC-12 [5] and in the series on PC-12 [7] was Active.
`O=C(/C=C/c1ccccc1)N1CCCCC1=O`: the Activity entry in series [8] is on record as “Toxic”; in [3] it was “Non-toxic”; in [9], “Toxic”. The outcome in the series on PC-12 [5] and in the series with PC-12 [7] was Active.
Consider `COc1cc(/C=C/C(=O)N2CCCC2=O)cc(OC)c1OC`, for which the Activity result in series [3], in [4] and in series [6] was “Non-toxic” in each case. For the same compound, the result in the series with PC-12 [5] and with PC-12 [7] was Active.
For `COc1cc(/C=C/C(=O)N2CCCCCC2=O)cc(OC)c1OC`, the Activity result in [3], in series [4] and in series [6] was “Non-toxic” throughout. Further, the result in the series on PC-12 [5] and with PC-12 [7] was Active.
In the case of `O=C(/C=C/c1ccc(C(F)(F)F)cc1)N1CCCCC1=O`, the Activity entry in series [8] was “Toxic”; in series [3] it was “Non-toxic”; in series [9], “Toxic”. The outcome in the series on PC-12 [5] and in the series on PC-12 [7] was Active.
In the case of `O=C(/C=C/c1ccccc1)N1CCCC1=O`, the Activity entry in series [8] is on record as “Toxic”; in [3], “Non-toxic”; in series [9], “Toxic”. Besides, the result in the series on PC-12 [5] and with PC-12 [7] was Active.
As to `O=C(/C=C/c1ccc(C(F)(F)F)cc1)N1CCCC1=O`, the values for the Activity entry in series [8], in series [3] and in series [9] were “Toxic”, “Non-toxic” and “Toxic”, respectively. For the same compound, the result with PC-12 [5] and in the series with PC-12 [7] was Active.
Turning to `COc1cc(/C=C/C(=O)N2CCC=CC2=O)cc(OC)c1OC` [PIPLARTINE], the Activity result in series [3], in series [4] and in series [6] was “Toxic” each time.
For the compound `COc1ccc(/C=C/C(=O)N2CCCCC2=O)cc1`, the Activity result in [3], in [4] and in [6] was “Non-toxic” each time. The outcome in the series with PC-12 [5] and with PC-12 [7] was Active.
For `O=C(/C=C/c1ccccc1)N1CCCCCC1=O`, the figures for the Activity entry in series [8], in series [3] and in series [9] were “Toxic”, “Non-toxic” and “Toxic”, respectively. For the same compound, the outcome with PC-12 [5] and in the series on PC-12 [7] was Active.
Take `COc1ccc(/C=C/C(=O)N2CCCC2=O)cc1OC`: the Activity result in [3], in series [4] and in series [6] was “Non-toxic” in each case. The outcome in the series on PC-12 [5] and in the series on PC-12 [7] was Active.
